In US20250326753A1, “DUAL CXCR4-BTK INHIBITORS” (X4 Pharmaceuticals, Inc., priority 2022, published 2025) one finds inhibition and IC50 data, which are given here for seven molecules.

By IC50 is commonly meant the concentration that inhibits the measured activity by half.

The target of one assay is T1, CSK (Homo sapiens, UniProt P41240).
T1 construct: purchased Reaction Biology Europe GmbH
The assay can be described thus: PanQinase kinase panel: CSK. It is filed as biochemical. The conditions noted are these: read-out: INHIBITORY EFFECT @ 1 uM: CSK. The procedure:
(§1) Screening procedures were performed in accordance with the company's on-line protocol [accessed on-line Mar.
(§2) For each kinase, the median value of the cpm of three wells was defined as “low control” (n=3). This value reflects unspecific binding of radioactivity to the plate in the absence of a protein kinase but in the presence of the substrate. Additionally, for each kinase the median value of the cpm of three other wells was taken as the “high control,” i.e. full activity in the absence of any inhibitor (n=3). The difference between high and low control of each enzyme was taken as 100% activity.
(§3) As part of the data evaluation the low control of each kinase was subtracted from the high control value as well as from their corresponding “compound values”. The residual activity (in %) for each compound well was calculated by using the following formula: Res. Activity (%)=100×[(signal of compound−low control)/(high control−low control)].

Another assay has as its target T2, ERBB2 (Homo sapiens, UniProt P04626).
T2 construct: purchased Reaction Biology Europe GmbH
The assay can be described thus: PanQinase kinase panel: ERBB2. Type of assay: biochemical. The conditions noted are these: read-out: INHIBITORY EFFECT @ 1 uM: ERBB2. The procedure:
as §1, §2, §3

For a further assay, the target named is T3, RET (Homo sapiens, UniProt P07949).
T3 construct: purchased Reaction Biology Europe GmbH
T3 sequence (P07949 29-1114): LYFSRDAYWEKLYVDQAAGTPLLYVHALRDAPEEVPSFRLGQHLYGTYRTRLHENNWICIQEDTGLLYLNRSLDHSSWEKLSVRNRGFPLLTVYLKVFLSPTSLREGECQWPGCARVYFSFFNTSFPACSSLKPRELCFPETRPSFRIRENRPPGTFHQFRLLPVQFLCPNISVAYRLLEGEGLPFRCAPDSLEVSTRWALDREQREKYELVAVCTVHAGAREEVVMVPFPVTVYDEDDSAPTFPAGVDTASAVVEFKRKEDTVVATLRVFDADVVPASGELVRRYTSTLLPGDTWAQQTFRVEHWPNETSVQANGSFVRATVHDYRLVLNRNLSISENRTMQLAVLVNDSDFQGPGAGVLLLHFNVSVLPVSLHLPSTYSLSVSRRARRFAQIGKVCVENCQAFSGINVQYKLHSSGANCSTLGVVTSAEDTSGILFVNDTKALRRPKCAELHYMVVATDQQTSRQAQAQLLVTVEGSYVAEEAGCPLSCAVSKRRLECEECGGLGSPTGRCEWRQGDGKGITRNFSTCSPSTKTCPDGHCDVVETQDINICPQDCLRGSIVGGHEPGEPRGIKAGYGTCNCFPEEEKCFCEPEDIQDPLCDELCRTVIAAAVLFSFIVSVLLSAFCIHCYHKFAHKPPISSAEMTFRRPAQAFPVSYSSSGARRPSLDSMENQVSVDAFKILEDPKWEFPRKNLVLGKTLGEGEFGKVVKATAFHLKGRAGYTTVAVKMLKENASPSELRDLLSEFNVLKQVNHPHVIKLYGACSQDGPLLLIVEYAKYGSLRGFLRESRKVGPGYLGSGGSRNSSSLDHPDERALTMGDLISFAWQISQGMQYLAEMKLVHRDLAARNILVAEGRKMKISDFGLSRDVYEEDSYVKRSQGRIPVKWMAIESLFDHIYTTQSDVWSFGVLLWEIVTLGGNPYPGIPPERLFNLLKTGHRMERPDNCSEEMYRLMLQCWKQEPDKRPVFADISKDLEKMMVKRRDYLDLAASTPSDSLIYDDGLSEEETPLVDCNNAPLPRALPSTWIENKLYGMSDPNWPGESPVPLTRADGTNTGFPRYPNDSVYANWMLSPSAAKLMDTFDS
The assay can be described thus: PanQinase kinase panel: RET. It is filed as biochemical. The conditions noted are these: read-out: INHIBITORY EFFECT @ 1 uM: RET. Here is the method: as §1, §2, §3

For another assay, the target named is T4, FGFR1 (Homo sapiens, UniProt P11362).
T4 construct: purchased Reaction Biology Europe GmbH
Nature of the assay: PanQinase kinase panel: FGFR1. It is filed as biochemical. The conditions noted are these: read-out: INHIBITORY EFFECT @ 1 uM: FGFR1. The procedure:
as §1, §2, §3

The next assay concerns the target T5, MAP4K5 (Homo sapiens, UniProt Q9Y4K4).
T5 construct: purchased Reaction Biology Europe GmbH
The assay can be described thus: PanQinase kinase panel: MAP4K5. Type of assay: biochemical. The conditions noted are these: read-out: INHIBITORY EFFECT @ 1 uM: MAP4K5. Here is the method:
as §1, §2, §3

A further assay concerns the target T6, MEK1 (Homo sapiens, UniProt Q02750).
T6 construct: purchased Reaction Biology Europe GmbH
The assay can be described thus: PanQinase kinase panel: MEK1. The conditions noted are these: read-out: INHIBITORY EFFECT @ 1 uM: MEK1. Type of assay: biochemical. Here is the method: as §1, §2, §3

The next assay concerns the target T7, MEKK3 (Homo sapiens, UniProt Q99759).
T7 construct: purchased Reaction Biology Europe GmbH
T7 sequence (Q99759 1-626): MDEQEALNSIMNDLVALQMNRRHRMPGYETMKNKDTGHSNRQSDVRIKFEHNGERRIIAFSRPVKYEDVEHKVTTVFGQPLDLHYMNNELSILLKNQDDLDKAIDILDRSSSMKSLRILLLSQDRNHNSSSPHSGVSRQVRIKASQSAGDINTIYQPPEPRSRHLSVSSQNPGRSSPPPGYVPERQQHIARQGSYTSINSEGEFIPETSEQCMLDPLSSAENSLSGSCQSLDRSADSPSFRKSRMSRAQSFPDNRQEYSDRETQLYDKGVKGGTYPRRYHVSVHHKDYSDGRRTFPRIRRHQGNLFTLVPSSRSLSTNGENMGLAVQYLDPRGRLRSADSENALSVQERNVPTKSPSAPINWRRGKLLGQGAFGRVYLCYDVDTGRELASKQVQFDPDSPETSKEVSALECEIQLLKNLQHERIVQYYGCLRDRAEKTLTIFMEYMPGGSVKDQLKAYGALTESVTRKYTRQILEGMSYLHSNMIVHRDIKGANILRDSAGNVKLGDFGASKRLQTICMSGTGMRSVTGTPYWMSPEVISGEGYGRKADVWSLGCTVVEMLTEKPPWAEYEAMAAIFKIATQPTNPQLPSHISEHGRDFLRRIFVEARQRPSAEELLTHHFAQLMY
Nature of the assay: PanQinase kinase panel: MEKK3. The conditions noted are these: read-out: INHIBITORY EFFECT @ 1 uM: MEKK3. It is filed as biochemical. Here is the method:
as §1, §2, §3

Another assay deals with T8, p38beta (Homo sapiens, UniProt Q15759).
T8 construct: purchased Reaction Biology Europe GmbH
T8 sequence (Q15759 whole entry): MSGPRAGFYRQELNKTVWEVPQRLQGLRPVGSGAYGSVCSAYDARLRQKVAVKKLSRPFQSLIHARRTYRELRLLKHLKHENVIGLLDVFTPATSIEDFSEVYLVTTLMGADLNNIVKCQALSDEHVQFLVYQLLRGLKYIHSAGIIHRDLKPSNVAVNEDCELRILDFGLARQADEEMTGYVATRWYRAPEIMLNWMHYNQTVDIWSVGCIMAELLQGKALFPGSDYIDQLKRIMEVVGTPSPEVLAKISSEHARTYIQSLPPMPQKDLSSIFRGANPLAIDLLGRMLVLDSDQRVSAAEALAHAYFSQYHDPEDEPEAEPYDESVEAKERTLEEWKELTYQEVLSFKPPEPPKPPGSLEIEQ
Nature of the assay: PanQinase kinase panel: p38beta. It is filed as biochemical. The conditions noted are these: read-out: INHIBITORY EFFECT @ 1 uM: p38beta. The procedure:
as §1, §2, §3

For a further assay, the target named is T9, VEGFR2 (Homo sapiens, UniProt P35968).
T9 construct: purchased Reaction Biology Europe GmbH
T9 sequence (P35968 20-1356): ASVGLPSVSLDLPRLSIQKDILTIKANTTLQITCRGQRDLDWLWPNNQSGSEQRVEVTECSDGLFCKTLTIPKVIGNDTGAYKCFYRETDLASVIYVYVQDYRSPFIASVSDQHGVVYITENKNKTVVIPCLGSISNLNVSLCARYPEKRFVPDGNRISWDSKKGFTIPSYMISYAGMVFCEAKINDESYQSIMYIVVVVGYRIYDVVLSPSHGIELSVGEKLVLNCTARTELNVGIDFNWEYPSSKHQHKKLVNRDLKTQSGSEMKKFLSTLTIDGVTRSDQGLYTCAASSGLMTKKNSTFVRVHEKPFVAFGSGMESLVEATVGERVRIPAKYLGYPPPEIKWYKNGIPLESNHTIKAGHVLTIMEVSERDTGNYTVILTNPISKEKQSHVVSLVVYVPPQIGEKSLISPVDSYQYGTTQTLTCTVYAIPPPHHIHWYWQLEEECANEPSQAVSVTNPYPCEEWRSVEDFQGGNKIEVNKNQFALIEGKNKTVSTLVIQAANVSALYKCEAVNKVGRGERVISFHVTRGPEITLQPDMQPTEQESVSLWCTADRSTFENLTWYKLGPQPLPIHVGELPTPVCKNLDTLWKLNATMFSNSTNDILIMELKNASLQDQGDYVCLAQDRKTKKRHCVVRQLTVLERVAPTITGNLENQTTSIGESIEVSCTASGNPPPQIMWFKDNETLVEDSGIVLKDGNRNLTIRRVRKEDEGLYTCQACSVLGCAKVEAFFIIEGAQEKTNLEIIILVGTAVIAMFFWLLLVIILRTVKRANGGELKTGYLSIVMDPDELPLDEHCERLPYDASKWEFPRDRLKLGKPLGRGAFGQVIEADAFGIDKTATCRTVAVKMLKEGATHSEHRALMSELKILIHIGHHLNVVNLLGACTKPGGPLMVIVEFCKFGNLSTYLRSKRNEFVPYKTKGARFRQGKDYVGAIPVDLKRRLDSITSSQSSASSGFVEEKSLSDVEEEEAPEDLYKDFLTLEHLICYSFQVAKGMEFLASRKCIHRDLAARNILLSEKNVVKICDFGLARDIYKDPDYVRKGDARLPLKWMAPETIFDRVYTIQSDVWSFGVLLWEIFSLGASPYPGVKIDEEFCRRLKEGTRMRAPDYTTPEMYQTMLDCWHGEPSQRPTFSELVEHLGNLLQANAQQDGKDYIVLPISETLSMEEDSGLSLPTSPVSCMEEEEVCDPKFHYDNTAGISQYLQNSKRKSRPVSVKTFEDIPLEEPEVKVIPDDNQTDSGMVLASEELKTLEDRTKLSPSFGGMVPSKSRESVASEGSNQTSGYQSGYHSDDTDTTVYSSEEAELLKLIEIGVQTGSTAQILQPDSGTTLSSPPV
The assay can be described thus: PanQinase kinase panel: VEGFR2. The conditions noted are these: read-out: INHIBITORY EFFECT @ 1 uM: VEGFR2. Type of assay: biochemical. Here is the method: as §1, §2, §3

Another assay deals with CXCR4 (Homo sapiens, UniProt P61073). The assay can be described thus: Intracellular CXCL-12-induced calcium mobilization assay (FLIPR), U87.CXCR4 cells. Type of assay: cell-based. Details: expressed in transfected cells; host or cells: U87 (U87.CXCR4). The conditions noted are these: CXCL-12 25-50 ng/ml, read-out: IC50 CXCL-12 Ca2+ flux U87.CXCR4+. The procedure, abridged:
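U87 cells transfected with CXCR4 were loaded with 4 μM Fluo-2 AM for 45 min at 37° C in HBSS with 20 mM HEPES and 0.2% BSA, pH 7.4. Calcium mobilization induced by CXCL-12 (25-50 ng/ml) was followed over time by FLIPR fluorescence at 37° C.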
For orientation: A change in cytosolic calcium serves as a functional read-out for many receptors and channels.

T1 sequence (P41240 whole entry): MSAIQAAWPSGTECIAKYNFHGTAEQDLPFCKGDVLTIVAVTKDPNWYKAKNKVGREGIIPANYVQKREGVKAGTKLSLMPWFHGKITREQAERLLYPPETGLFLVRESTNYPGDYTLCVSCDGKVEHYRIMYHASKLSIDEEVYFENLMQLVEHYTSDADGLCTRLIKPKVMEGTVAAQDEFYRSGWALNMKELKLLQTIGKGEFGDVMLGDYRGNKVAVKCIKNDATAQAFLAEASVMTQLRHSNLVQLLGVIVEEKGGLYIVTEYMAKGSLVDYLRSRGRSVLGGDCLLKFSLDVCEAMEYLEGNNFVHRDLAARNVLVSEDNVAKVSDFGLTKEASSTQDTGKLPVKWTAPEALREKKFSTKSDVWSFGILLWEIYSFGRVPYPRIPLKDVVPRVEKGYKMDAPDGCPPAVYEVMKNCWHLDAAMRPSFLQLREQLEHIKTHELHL
T6 sequence (Q02750 whole entry): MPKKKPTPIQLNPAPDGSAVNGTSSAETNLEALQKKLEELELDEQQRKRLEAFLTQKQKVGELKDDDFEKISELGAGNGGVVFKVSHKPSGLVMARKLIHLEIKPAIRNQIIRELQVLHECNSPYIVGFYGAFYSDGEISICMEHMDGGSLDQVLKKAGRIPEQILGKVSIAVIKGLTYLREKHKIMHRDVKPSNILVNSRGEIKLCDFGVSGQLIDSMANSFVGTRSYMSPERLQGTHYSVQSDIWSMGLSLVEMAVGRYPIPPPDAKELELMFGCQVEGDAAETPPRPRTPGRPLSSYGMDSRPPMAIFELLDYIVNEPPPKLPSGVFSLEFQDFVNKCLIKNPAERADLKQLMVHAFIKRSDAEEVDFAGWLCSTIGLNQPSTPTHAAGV
T5 sequence (Q9Y4K4 whole entry): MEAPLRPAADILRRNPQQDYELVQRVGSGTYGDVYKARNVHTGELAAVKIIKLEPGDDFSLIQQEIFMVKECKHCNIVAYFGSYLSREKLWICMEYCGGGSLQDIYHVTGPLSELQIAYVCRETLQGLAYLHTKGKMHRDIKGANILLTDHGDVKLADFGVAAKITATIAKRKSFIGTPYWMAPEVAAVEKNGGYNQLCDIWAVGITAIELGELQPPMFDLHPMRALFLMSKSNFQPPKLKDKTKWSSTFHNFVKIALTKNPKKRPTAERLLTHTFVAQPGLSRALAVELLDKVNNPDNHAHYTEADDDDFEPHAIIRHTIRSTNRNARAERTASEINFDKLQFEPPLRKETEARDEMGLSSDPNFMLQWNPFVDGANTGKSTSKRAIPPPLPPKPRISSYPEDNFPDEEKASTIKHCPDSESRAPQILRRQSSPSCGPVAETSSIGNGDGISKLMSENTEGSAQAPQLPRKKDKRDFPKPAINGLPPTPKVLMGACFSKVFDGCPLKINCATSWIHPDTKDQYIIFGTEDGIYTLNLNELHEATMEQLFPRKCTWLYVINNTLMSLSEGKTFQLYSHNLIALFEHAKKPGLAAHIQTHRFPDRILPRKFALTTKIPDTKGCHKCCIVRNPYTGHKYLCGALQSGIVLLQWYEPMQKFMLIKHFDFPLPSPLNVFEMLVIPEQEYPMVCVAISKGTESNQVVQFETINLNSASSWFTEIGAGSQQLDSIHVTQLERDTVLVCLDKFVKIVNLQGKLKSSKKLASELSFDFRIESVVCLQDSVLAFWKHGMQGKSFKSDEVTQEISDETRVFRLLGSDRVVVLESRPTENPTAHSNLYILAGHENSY
Sequence of CXCR4 (P61073 whole entry): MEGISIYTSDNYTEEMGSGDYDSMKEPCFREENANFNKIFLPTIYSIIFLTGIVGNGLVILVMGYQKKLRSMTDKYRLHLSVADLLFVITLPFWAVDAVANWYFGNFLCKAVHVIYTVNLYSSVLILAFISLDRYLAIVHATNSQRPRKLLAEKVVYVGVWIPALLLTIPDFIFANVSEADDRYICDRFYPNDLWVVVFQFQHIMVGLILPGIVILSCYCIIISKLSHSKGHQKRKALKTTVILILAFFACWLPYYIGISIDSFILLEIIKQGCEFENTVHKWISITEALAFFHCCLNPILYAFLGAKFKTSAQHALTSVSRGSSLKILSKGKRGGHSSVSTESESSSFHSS

Consider `O=C(c1ccc(Oc2ccccc2)cc1Cl)c1c[nH]c2ncnc(N[C@@H]3CC[C@@H](CO)OC3)c12` [ARQ-531, (2-chloro-4-phenoxyphenyl) (4-(((3R,6S)-6-(hydroxymethyl)tetrahydro-2H-pyran-3-yl)amino)-7H-pyrrolo[2,3-d]pyrimidin-5-yl) methanone], for which the inhibition at 1 µM at CSK is 90 to 100%; at ERBB2 it was 70 to 89%; on RET it was 90 to 100%; at FGFR1, 50 to 69%; on MAP4K5, 50 to 69%; at MEK1, 50 to 69%. Moreover, the inhibition at 1 µM at MEKK3 lay within 50 to 69%; at p38beta, 70 to 89%.

Consider `Cc1cccnc1[C@H]1CCC[C@@H](c2ncccc2C)N1CCN1CCN(C(=O)c2ccc(-c3cc4c(-c5cccc(NC(=O)c6ccccc6)c5C)ncnc4[nH]3)cc2)CC1` [Compound I-10, N-(3-(6-(4-(4-(2-((2R,6S)-2,6-bis(3-methylpyridin-2-yl)piperidin-1-yl)ethyl)piperazine-1-carbonyl)phenyl)-7H-pyrrolo[2,3-d]pyrimidin-4-yl)-2-methylphenyl)benzamide], for which the inhibition at 1 µM at CSK, at ERBB2, at RET, at FGFR1, on VEGFR2 and on MAP4K5 was < 50% throughout. The inhibition at 1 µM at MEK1, at MEKK3 and on p38beta was < 50% each time. Moreover, on CXCR4, the IC50 was in the range of 1 to 100 nM.

Take `Cc1cc(-c2ccnc(Nc3cnn(CCN4[C@@H](c5ncccc5C)CCC[C@H]4c4ncccc4C)c3)n2)ccc1CNC(=O)N1CC(OC(C)C)C1` [Compound I-11]: the IC50 at CXCR4 lay in the range of 100 to 1000 nM.

`Cc1cccnc1[C@H]1CCC[C@@H](c2ncccc2C)N1CCCCNC(=O)[C@@H]1CC[C@@H](Nc2ncnc3[nH]cc(C(=O)c4ccc(Oc5ccccc5)cc4Cl)c23)CO1` [Compound I-16]: the IC50 on CXCR4 lay in the range of 100 to 1000 nM.

On to `Cc1cccnc1[C@H]1CCC[C@@H](c2ncccc2C)N1CCCCNC(=O)OC[C@@H]1CC[C@@H](Nc2ncnc3[nH]cc(C(=O)c4ccc(Oc5ccccc5)cc4Cl)c23)CO1` [Compound I-18], for which the IC50 at CXCR4 is > 2500 nM.

For `COc1ccc(F)cc1C(=O)NCc1ccc(-c2nn([C@@H](C)C(F)(F)F)c(N)c2C(N)=O)cc1` [LOXO-305, pirtobrutinib], the inhibition at 1 µM is 70 to 89% on CSK; 50 to 69% at ERBB2; 50 to 69% at RET; < 50% at FGFR1; < 50% on VEGFR2; < 50% at MAP4K5. Moreover, the inhibition at 1 µM on MEK1, at MEKK3 and at p38beta was < 50% in each case.

Regarding `C=CC(=O)N1CCC([C@@H]2CCNc3c(C(N)=O)c(-c4ccc(Oc5ccccc5)cc4)nn32)CC1` [Zanubrutinib, (7S)-2-(4-phenoxyphenyl)-7-(1-prop-2-enoylpiperidin-4-yl)-4,5,6,7-tetrahydropyrazolo[1,5-a]pyrimidine-3-carboxamide], the inhibition at 1 µM at ERBB2, at RET, at FGFR1, on VEGFR2, at MAP4K5 and on MEK1 was < 50% in each case. Besides, the inhibition at 1 µM at MEKK3 and on p38beta was < 50% throughout.
